Experimental data taken from patent US11339161B2, “Triazolo pyridines as modulators of gamma-secretase” (Boehringer Ingelheim International GmbH, priority 2017, dated 2022).
Like-named read-outs stand apart in the source and are kept apart here.

Experiments:
[1] = tested on: kinases; test: Z'-LYTE SelectScreen kinase panel: number of kinases with <40% inhibition out of 15 tested; assay type: biochemical; settings: 10 μmolar (10000 nM) compound; [ATP] Km app; 15 kinases tested
[2] = target: RPS6KB1 (p70S6K) (Homo sapiens, UniProt P23443); test: Z'-LYTE SelectScreen biochemical kinase assay RPS6KB1 (p70S6K)
Description: Thermo Fisher Scientific SelectScreen™ Biochemical Kinase Profiling Service Z′-LYTE™ Screening Protocol and Assay Conditions Assay Theory
The […] biochemical assay employs a fluorescence-based, coupled-enzyme format and is based on the differential sensitivity of phosphorylated and non-phosphorylated peptides to proteolytic cleavage. The peptide substrate is labeled with two fluorophores—one at each end—that make up a FRET pair. In the primary reaction, the kinase transfers the gamma-phosphate of ATP to a single tyrosine, serine or threonine residue in a synthetic FRET-peptide. In the secondary reaction, a site-specific protease recognizes and cleaves non-phosphorylated FRET-peptides. Phosphorylation of FRET-peptides suppresses cleavage by the Development Reagent. Cleavage disrupts FRET between the donor (i.e., coumarin) and acceptor (i.e., fluorescein) fluorophores on the FRET-peptide, whereas uncleaved, phosphorylated FRET-peptides maintain FRET. A ratiometric method, which calculates the ratio (Emission Ratio=Coumarin emission (445 nm)/Fluorescein emission (520 nm)) of donor emission to acceptor emission after excitation of the donor fluorophore at 400 nm, is used to quantitate reaction progress, as shown in the equation below. A significant benefit of this ratiometric method for quantitating reaction progress is the elimination of well-to-well variations in FRET-peptide concentration and signal intensities. As a result, the assay yields very high Z′-factor values (>0.7) at a low percent phosphorylation. Both cleaved and uncleaved FRET-peptides contribute to the fluorescence signals and therefore to the Emission Ratio. The extent of phosphorylation of the FRET-peptide can be calculated from the Emission Ratio. The Emission Ratio will remain low if the FRET-peptide is phosphorylated (i.e., no kinase inhibition) and will be high if the FRET-peptide is non-phosphorylated (i.e., kinase inhibition).
The Test Compounds are screened in 1% DMSO (final) in the well. For 10 point titrations, 3-fold serial dilutions are conducted from the starting concentration of the customer's choosing.
All Peptide/Kinase Mixtures are diluted to a 2× working concentration in the appropriate Kinase Buffer (see section Kinase Specific Assay Conditions for a complete description).
All ATP Solutions are diluted to a 4× working concentration in Kinase Buffer (50 mM HEPES pH 7.5, 0.01% BRIJ-35, 10 mM MgCl2, 1 mM EGTA). ATP Km apparent is previously determined using a Z″-LYTE assay.
The Development Reagent is diluted in Development Buffer (see section Kinase-Specific Assay Conditions—Direct and Cascade for a complete description).
Bar-coded Corning, low volume NBS, black 384-well plate (Corning Cat. #4514) • 1. 100 nL—100× Test Compound in 100% DMSO • 2. 2.4 μL—Kinase buffer • 3. 5 μL—2× Peptide/Kinase Mixture • 4. 2.5 μL—4×ATP Solution • 5. 30—second plate shake • 6. 60—minute Kinase Reaction incubation at room temperature • 7. 5 μL—Development Reagent Solution • 8. 30—second plate shake • 9. 60—minute Development Reaction incubation at room temperature • 10. Read on fluorescence plate reader and analyze the data Z′-LYTE Assay Controls
SelectScreen Kinase Profiling Service uses XLfit from IDBS. The dose response curve is curve fit to model number 205 (sigmoidal dose-response model).
The 2×RPS6 KB1 (p70S6K)/Ser/Thr 07 mixture is prepared in 50 mM HEPES pH 7.5, 0.01% BRIJ-35, 10 mM MgCl2, 1 mM EGTA. The final 10 μL Kinase Reaction consists of 2.87-17.7 ng RPS6 KB1 (p70S6K) and 2 μM Ser/Thr 07 in 50 mM HEPES pH 7.5, 0.01% BRIJ-35, 10 mM MgCl2, 1 mM EGTA. After the 1 hour Kinase Reaction incubation, 5 μL of a 1:45000 dilution of Development Reagent A is added.

[3] = tested on: Aβ total; test: Aβ total levels in H4 neuroglioma cells stably expressing human APP695 (MSD electrochemiluminescence); assay type: cell-based; settings: selectivity ratio vs. Aβtotal, Table 4a
Method: Cells were plated out to near confluency. The compounds to be tested were received as 10 mM stocks in 100% DMSO. A dilution series was initially generated in 100% DMSO and then diluted 200-fold in cell culture media such that the tested concentration range was 30 μM to 0.1 nM and the final DMSO concentration was 0.5%. The diluted compounds were incubated with the cells for 22 hours in an incubator at 37° C. and 5% CO2. Aβ42 levels were measured post-incubation from the supernatant of the cells using an Aβ42 specific electrochemiluminescence assay provided by Meso Scale Discovery (Catalog #L21CA-1). The measurement of Aβ42 levels were performed according to the manufacturer's protocol.
Aβ total levels were likewise determined using a specific electrochemiluminescence assay provided by Meso Scale Discovery (Catalog #L21ZA-1) according to the manufacturer's protocol.

[4] = 10 μmolar compound concentration, ATP at Km app, read-out: RPS6KB1 (p70S6K) inhibition
[5] = read-out: % Inhibition mean RPS6KB1 (p70S6K)

Sequence of RPS6KB1 (p70S6K) (P23443 whole entry): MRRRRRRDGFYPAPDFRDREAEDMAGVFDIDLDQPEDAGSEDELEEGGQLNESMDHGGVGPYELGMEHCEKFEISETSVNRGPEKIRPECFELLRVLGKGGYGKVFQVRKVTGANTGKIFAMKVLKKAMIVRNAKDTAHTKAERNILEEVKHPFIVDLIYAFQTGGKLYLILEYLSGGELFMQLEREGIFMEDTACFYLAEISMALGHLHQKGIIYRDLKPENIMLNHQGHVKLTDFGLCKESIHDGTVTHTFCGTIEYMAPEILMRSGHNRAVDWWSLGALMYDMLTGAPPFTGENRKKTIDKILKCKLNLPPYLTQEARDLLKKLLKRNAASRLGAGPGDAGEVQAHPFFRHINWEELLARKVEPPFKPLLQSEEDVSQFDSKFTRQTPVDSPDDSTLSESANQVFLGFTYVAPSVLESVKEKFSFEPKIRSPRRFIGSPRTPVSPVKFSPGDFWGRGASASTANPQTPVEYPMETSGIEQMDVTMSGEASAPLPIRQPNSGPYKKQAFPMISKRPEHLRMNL

SMILES	No. of kinases with <40% inhibition [1]	inhibition at 10 µM [2, 4] [%]	inhibition at 10 µM [2, 5] [%]	Ratio AβTotal IC50/Aβ42 IC50 [3]
Cc1cc(F)ccc1-c1cccn2nc(NC3CCc4c(cnn4C)C3)nc12 (stereo not drawn) [Example 10, [8-(4-fluoro-2-methyl-phenyl)-[1,2,4]triazolo[1,5-a]pyridine-2-yl]-(1-methyl-4,5,6,7-tetrahydro-1H-indazol-5-yl)-amine]	13/15	< 40	2	27
Cc1cc(F)ccc1-c1cccn2nc(NC3CCc4c(cnn4CC(C)C)C3)nc12 (stereo not drawn) [Example 45, [8-(4-fluoro-2-methyl-phenyl)-[1,2,4]triazolo[1,5-a]pyridine-2-yl]-(1-isobutyl-4,5,6,7-tetrahydro-1H-indazol-5-yl)-amine]	14/15	< 40	7	4
CCCCn1ncc2c1CCC(Nc1nc3c(-c4ccc(F)cc4C)cccn3n1)C2 (stereo not drawn) [Example 46, [8-(4-fluoro-2-methyl-phenyl)-[1,2,4]triazolo[1,5-a]pyridine-2-yl]-(1-butyl-4,5,6,7-tetrahydro-1H-indazol-5-yl)-amine]	14/15	< 40	6	4
Cc1cc(F)ccc1-c1cccn2nc(NC3CCc4cnn(C)c4C3)nc12 (stereo not drawn) [Example 40, [8-(4-Fluoro-2-methyl-phenyl)-[1,2,4]triazolo[1,5-a]pyridine-2-yl]-(1-methyl-4,5,6,7-tetrahydro-1H-indazol-6-yl)-amine]	13/15	< 40	19	1
Cc1cc(F)ccc1-c1cccn2nc(Nc3ccc4c(cnn4C)c3)nc12 [Example 9, [8-(4-fluoro-2-methyl-phenyl)-[1,2,4]triazolo[1,5-a]pyridine-2-yl]-(1-methyl-1H-indazol-5-yl)-amine]	7/15	< 40	3	3

Continued, in another order:

No. of kinases with <40% inhibition [1]	inhibition at 10 µM [2, 4] [%]	inhibition at 10 µM [2, 5] [%]	SMILES	Ratio AβTotal IC50/Aβ42 IC50 [3]
15/15	< 40	12	CCCCCn1ncc2c1CCC(Nc1nc3c(-c4ccc(F)cc4C)cccn3n1)C2 (stereo not drawn) [Example 47, [8-(4-fluoro-2-methyl-phenyl)-[1,2,4]triazolo[1,5-a]pyridine-2-yl]-(1-pentyl-4,5,6,7-tetrahydro-1H-indazol-5-yl)-amine]	1
14/15	< 40	15	CCn1nc(Cl)c2c1CCC(Nc1nc3c(-c4ccc(F)cc4C)cccn3n1)C2 (stereo not drawn) [Example 48, (3-Chloro-1-ethyl-4,5,6,7-tetrahydro-1H-indazol-5-yl)-[8-(4-fluoro-2-methyl-phenyl)-[1,2,4]triazolo[1,5-a]pyridine-2-yl]-amine]	22
13/15	< 40	11	CCn1ncc2c1CCC(Nc1nc3c(-c4ccc(F)cc4)cccn3n1)C2 (stereo not drawn) [Example 55, (1-Ethyl-4,5,6,7-tetrahydro-1H-indazol-5-yl)-[8-(4-fluoro-phenyl)-[1,2,4]triazolo[1,5-a]pyridine-2-yl]-amine]	120
14/15	< 40	33	CCn1ncc2c1C(C)CC(Nc1nc3c(-c4cc(F)c(F)c(F)c4)cccn3n1)C2 (stereo not drawn) [Example 49, (1-Ethyl-7-methyl-4,5,6,7-tetrahydro-1H-indazol-5-yl)-[8-(3,4,5-trifluoro-phenyl)-[1,2,4]triazolo[1,5-a]pyridine-2-yl]-amine]	15
14/15	< 40	22	CCn1ncc2c1CC[C@@H](Nc1nc3c(-c4ccc(F)cc4C)cccn3n1)C2 [Example R-42, (R)-(1-Ethyl-4,5,6,7-tetrahydro-1H-indazol-5-yl)-[8-(4-fluoro-2-methyl-phenyl)-[1,2,4]triazolo[1,5-a]pyridine-2-yl]-amine]	–
